Laboratory results as given in patent US11661437B2, “Steroid derivative regulators, method for preparing the same, and uses thereof” (priority 2018, dated 2023).

Tests used:
[1] = tested on: ICR mice; test: In vivo pharmacodynamic test in the forced swimming model in mice; conditions: for Mean (immobility, %) / Mean (immobility, s): 10 mpk p.o.; for Mean (immobility, %): floating time percentage = 100*floating time/240 s; for Mean (immobility, s): latter four minutes of 6 min swim
Description: The antidepressant effect of the compound was evaluated by the forced swimming model in mice.
Male ICR mice (25-35 g) were adapted in the test environment for 3 days before the forced swimming test.
According to the test design, the mice were randomly grouped on the day before the test according to body weight, with 12 mice in each group. Before the test, the compounds of each example were administrated intragastrically according to the Tmax thereof in the brain in mice pharmacokinetic test as follows:
1) Model group (0.5% CMC-Na+1% Tween 80 solution, p.o., 10 mL/kg);
2) Compounds of Example 2, Example 5, Example 7, Example 18, Example 23, Example 26 and Example 50 (10 mg/kg, p.o., 10 mL/kg).
When being administrated, the compounds of each example were suspended in 0.5% CMC-Na-1% Tween 80 solution to the desired concentration.
0.5-1 hour after administration, ICR mice were placed in a forced swimming device (transparent glass drum (water depth 18 cm, water temperature 25-26° C.), one mouse per tank) and forced to swim for 6 minutes. The forced swimming device recorded the floating time of the ICR mice during the entire 6 minutes, and the data of the latter four minutes were used for data analysis. The mice were taken out immediately after the swimming test, wiped dry and put back in their original cages.
Note: The criterion for determining the immobility time is that the mouse stops struggling in water and floats, and there are only slight limb movements to keep the head floating on the water.
3.4 Data Analysis Floating time percentage=100*floating time/240 s.

[2] = Pharmacokinetic assay in Balb/c mice (plasma and brain tissue); type: in vivo; conditions: male, Balb/c, mouse, in vivo, po, 5 mg/kg; for half-life: Half-life t1/2; for MRT: Mean residence time MRT; for AUC(0-t): Area under curve AUC0-t; for AUC(0-inf): Area under curve AUC0-∞; for Cmax: Plasma concentration Cmax
Description: Balb/c mice were used as test animals. The pharmacokinetic behavior in mice (plasma and brain tissue) of the compounds of Example 2, Example 5, Example 7, Example 12, Example 18, Example 23, Example 26, Example 38, Example 41, Example 50, Example 51 and Example 66 orally administrated at a dose of 5 mg/kg was studied.
Each group had 24 male Balb/c mice. After an overnight fast, Balb/c mice were administrated p.o. with the test compound at an administration dose of 5 mg/kg and an administration volume of 10 mL/kg.
0.2 ml of blood was taken from the heart before administration and at 0, 0.5, 1, 2, 4, 6, 8 and 24 hours after administration. The samples were stored in EDTA-K2 tubes, and centrifuged for 6 minutes at 4° C., 6000 rpm to separate the plasma. The plasma samples were stored at −80° C. The mice were sacrificed with CO2, and the whole brain tissue was taken out, weighed, placed in a 2 mL centrifuge tube and stored at −80° C.
1) 160 μL of acetonitrile was added to 40 μL of the plasma sample for precipitation, and then the mixture was centrifuged for 5-20 minutes at 3500×g.
2) 90 μL of acetonitrile containing the internal standard (100 ng/mL) was added to 30 μL of the plasma and brain homogenate samples for precipitation, and then the mixture was centrifuged for 8 minutes at 13000 rpm.
3) 70 μL of the treated supernatant was taken and added to 70 μL of water, and mixed by vortex for 10 minutes. 20 μL of the mixture was taken to analyze the concentration of the test compound by LC/MS/MS. LC/MS/MS analysis instrument: AB Sciex API 4000 Qtrap.
2.6 Liquid Chromatography Analysis • Liquid chromatography condition: Shimadzu LC-20AD pump. • Chromatographic column: Agilent ZORBAX XDB-C18 (50×2.1 mm, 3.5 μm); Mobile phase: Eluent A was 0.1% formic acid in water, and Eluent B was acetonitrile. • Flow rate: 0.4 mL/min • Elution time: 0-4.0 minutes the eluent is as follows:
The main parameters of pharmacokinetics were calculated by WinNonlin 6.1.

[3] = tested on: GABA-A receptor; test: 35S-TBPS binding assay on rat cerebral cortex cell membrane; design: species or system Sprague-Dawley rat; conditions: 2 nM 35S-TBPS, GABA added, read-out: 35S-TBPS bindng test, IC50 on inhibiting the TBPS binding activity
Description: 1.2.1 Extraction of Cerebral Cortex Cell Membrane:
1. The cerebral cortex of male Sprague-Dawley rat was isolated.
2. A pre-chilled 0.32 M sucrose solution (one tablet of protease inhibitor was added per 100 ml) was added to the cerebral cortex (the volume of sucrose solution was 10 times the volume of the cerebral cortex). The mixture was crushed with a 50 ml glass tissue homogenizer in batches and mixed well.
3. The mixture was centrifuged at 1500 g, 4° C. for 10 minutes, and the supernatant was collected.
4. The mixture was centrifuged at 20000 g, 4° C. for 30 minutes, and the supernatant was discarded.
5. The precipitate was resuspended with the pre-chilled phosphate buffer saline (PBS) (one tablet of protease inhibitor was added per 100 ml). An average of 4 ml of PBS was added per rat, and the mixture was mixed well with a glass tissue homogenizer.
6. The mixture was centrifuged at 10000 g, 4° C. for 10 minutes, and the supernatant was discarded.
7. Steps 5 and 6 were repeated three times.
8. Finally, the precipitate was resuspended with 4 volumes of PBS. The resulting solution was dispensed, frozen in liquid nitrogen, and stored at −80° C.
9. The protein concentration was measured by the bicinchoninic acid (BCA) method.
1.2.2 ^35S-TBPS Binding Assay
1. 230 μL of PBS was added to each well of a well plate with 1.1 ml volume.
2. 60 μL of the cerebral cortex cell membrane (5 μg/μL) solution was added to each well, and the mixture was mixed well.
3. The test compound (3 μL per well) was added, and the plate was incubated at 25° C. for 5 minutes. The DMSO concentration was 1%. The initial compound concentration was 1 NM, and a 3-fold dilution in gradient was carried out to obtain a total of 8 gradients and 2 replicates. 1% DMSO was used as a negative control, and 10 μM P026-2 was used as a positive control.
4. GABA was added at a final concentration of […], and incubated at 25° C. for 5 minutes. 1 mM GABA solution was formulated, and 1.5 μL of the solution was added to each well.
5. ^35S-TBPS was added at a final concentration of 2 nM. The concentration of isotope mother solution was 9.7 μM. After dilution with PBS for 100 times, 6 μL of the diluted isotope solution was added to each well.
6. The plate was incubated at 4° C. for 20 hours.
7. The FilterMate GF/C plate was pre-treated with 0.5% PEI, and incubated at 4° C. for 1 hour.
8. The FilterMate GF/C plate was washed with Universal Harvester twice, 50 ml PBS each time.
9. The reaction solution was transferred to the GF/C plate, and each well was washed 4 times with 900 μL PBS.
10. The washed GF/C plate was placed at 55° C. and dried for 10 minutes.
11. 40 μL of scintillation solution was added to each well, and the CPM value was read with TopCount.
1.2.3 Experimental Data Processing Method:
In the experiment, the CPM (counts per minute) value was read with TopCount. According to the readings of the High control (DMSO) and the Low control (10 μM of the positive compound) experimental groups, the % inhibition was calculated based on the following formula: % Inhibition=100×(CPMHigh control−CPMSample)/(CPMHigh control−CPMLow control)
The IC50 of the compound was calculated according to the following 4-parameter nonlinear logic formula: Y=Bottom+(Top−Bottom)/(1+10^((Log IC50−X)*Hill Slope)),
The effect of the compound of the present invention on the TBPS binding activity was determined by the above test, and the measured IC50 values are shown in Table 1.

C[C@@]1(O)CC[C@@]2(F)[C@H](CC[C@H]3[C@@H]4CC[C@H](C(=O)Cn5nc(C#N)cc5C#N)[C@@]4(C)CC[C@@H]32)C1 [Example 50, 1-(2-((3R,5R,8S,9S,10R,13S,14S,17S)-10-Fluoro-3-hydroxy-3,13-dimethylhexadecahydro-1H-cyclopenta[a]phenanthren-17-yl)-2-oxoethyl)-1H-pyrazole-3,5-dicarbonitrile]
immobility time during the latter four minutes compared with that of the model group ([1]; 10 mg/kg p.o.): very significantly different
Mean (immobility, %) [1]: 42.11%
Mean (immobility, s) [1]: 101.07 s
Half-life t1/2 [2]: 1.10 h
Mean residence time MRT [2]: 2.48 h
half-life [2]: 1.11 h
MRT [2]: 2.36 h
Tmax ([2]; Peak time tmax): 1 h
IC50 [3]: 12.5 nM

C[C@@]1(O)CC[C@]2(F)C3CC[C@]4(C)[C@@H](C(=O)CNc5ccc(F)cc5F)CC[C@H]4[C@@H]3CC[C@@H]2C1 (stereo partly drawn) [Example 26, 2-((2,4-Difluorophenyl)amino)-1-((3R,5R,8S,10R,13S,14S,17S)-10-fluoro-3-hydroxy-3,13-dimethylhexadecahydro-1H-cyclopenta[a]phenanthren-17-yl)ethan-1-one]
Mean (immobility, %) [1]: 53.46%
Mean (immobility, s) [1]: 128.30 s
Area under curve AUC0-t [2]: 722.9 ng·h/mL
Area under curve AUC0-∞ [2]: 828.4 ng·h/mL
Half-life t1/2 [2]: 2.06 h
Mean residence time MRT [2]: 3.84 h
Plasma concentration Cmax [2]: 172.3 ng/mL
AUC(0-t) [2]: 767 ng·h/mL
AUC(0-inf) [2]: 772 ng·h/mL
half-life [2]: 2.57 h
MRT [2]: 4.08 h
Tmax ([2]; Peak time tmax): 0.5 h
Cmax [2]: 232 ng/mL
IC50 [3]: 10.5 nM

Cc1nn(CC(=O)[C@H]2CC[C@H]3[C@@H]4CC[C@@H]5C[C@](C)(O)CC[C@]5(F)[C@H]4CC[C@]23C)cc1C#N [Example 38, 1-(2-((3R,5R,8S,9S,10R,13S,14S,17S)-10-Fluoro-3-hydroxy-3,13-dimethylhexadecahydro-1H-cyclopenta[a]phenanthren-17-yl)-2-oxoethyl)-3-methyl-1H-pyrazole-4-carbonitrile]
Area under curve AUC0-t [2]: 1216.1 ng·h/mL
Area under curve AUC0-∞ [2]: 1230.2 ng·h/mL
Half-life t1/2 [2]: 1.14 h
Mean residence time MRT [2]: 1.6 h
Plasma concentration Cmax [2]: 746.7 ng/mL
AUC(0-t) [2]: 1950 ng·h/mL
AUC(0-inf) [2]: 1970 ng·h/mL
half-life [2]: 1.08 h
MRT [2]: 1.7 h
Tmax ([2]; Peak time tmax): 0.5 h
Cmax [2]: 1110 ng/mL
IC50 [3]: 34 nM

C[C@@]1(O)CC[C@@]2(F)[C@H](CC[C@H]3[C@@H]4CC[C@H](C(=O)COc5cnc(C(F)(F)F)nc5)[C@@]4(C)CC[C@@H]32)C1 [Example 66, 1-((3R,5R,8S,9S,10R,13S,14S,17S)-10-Fluoro-3-hydroxy-3,13-dimethylhexadecahydro-1H-cyclopenta[a]phenanthren-17-yl)-2-((2-(trifluoromethyl)pyrimidin-5-yl)oxy)ethan-1-one]
Half-life t1/2 [2]: 3.60 h
Mean residence time MRT [2]: 5.01 h
Tmax [2]: 1 h
half-life [2]: 4.39 h
MRT [2]: 5.54 h
Tmax ([2]; Peak time tmax): 0.5 h
IC50 [3]: 27 nM

Cc1nnn(CC(=O)[C@H]2CC[C@H]3[C@@H]4CC[C@@H]5C[C@](C)(O)CC[C@]5(F)[C@H]4CC[C@]23C)n1 [Example 41, 1-((3R,5R,8S,9S,10R,13S,14S,17S)-10-Fluoro-3-hydroxy-3,13-dimethylhexadecahydro-1H-cyclopenta[a]phenanthren-17-yl)-2-(5-methyl-2H-tetrazol-2-yl)ethan-1-one]
Mean residence time MRT [2]: 0.91 h
Plasma concentration Cmax [2]: 625.3 ng/mL
Tmax [2]: 0.5 h
MRT [2]: 0.94 h
Cmax [2]: 1230 ng/mL
IC50 [3]: 13.6 nM

C[C@@]1(O)CC[C@@]2(F)[C@H](CC[C@H]3[C@@H]4CC[C@H](C(=O)Cn5ncnn5)[C@@]4(C)CC[C@@H]32)C1 [Example 12, 1-((3R,5R,8S,9S,10R,13S,14S,17S)-10-Fluoro-3-hydroxy-3,13-dimethylhexadecahydro-1H-cyclopenta[a]phenanthren-17-yl)-2-(2H-tetrazol-2-yl)ethan-1-one]
Mean residence time MRT [2]: 0.73 h
Tmax [2]: 0.5 h
MRT [2]: 0.86 h
IC50 [3]: 13.5 nM

C[C@@]1(O)CC[C@]2(F)C3CC[C@]4(C)[C@@H](C(=O)Cn5cc(C#N)c(Cl)n5)CC[C@H]4[C@@H]3CC[C@@H]2C1 (stereo partly drawn) [Example 51, 3-Chloro-1-(2-((3R,5R,8S,10R,13S,14S,17S)-10-fluoro-3-hydroxy-3,13-dimethylhexadecahydro-1H-cyclopenta[a]phenanthren-17-yl)-2-oxoethyl)-1H-pyrazole-4-carbonitrile]
Area under curve AUC0-t [2]: 1625.9 ng·h/mL
Area under curve AUC0-∞ [2]: 1796.0 ng·h/mL
Half-life t1/2 [2]: 2.19 h
Mean residence time MRT [2]: 3.28 h
Plasma concentration Cmax [2]: 512.3 ng/mL
Tmax [2]: 1 h
AUC(0-t) [2]: 1960 ng·h/mL
AUC(0-inf) [2]: 2080 ng·h/mL
half-life [2]: 1.93 h
MRT [2]: 2.65 h
Tmax ([2]; Peak time tmax): 0.5 h
Cmax [2]: 711 ng/mL
IC50 [3]: 14.3 nM
